From article PMC4676410 (Journal of medicinal chemistry, 2015)
Several values for one entry are separate records, joined by “and”; a condition that tells them apart may be missing. Identical values can stand only once. Like-named read-outs stand apart in the source and are kept apart here.

Key:
YU2 core gp120 = test: SPR: binding of YU2 core gp120 to captured mAb 17b in presence of compounds; design: species or system HIV-1; details: sCD4 15-fold excess, compounds 50-fold excess
A-MLV = test: microbe, parasite or virus in culture; format: cell-based; details: control, A-MLV envelope pseudovirus
HIV-1IIIB = test: CD4-dependent CXCR4-tropic HIV-1 cell-cell transmission assay; format: cell-based; details: read-out: IC50, CXCR4-tropic HIV-1 cell-cell transmission; Ghost X4/R5 and H9/HIV-1IIIB, p24
[1] = tested on: laboratory-adapted HIV-1 strains; test: microbe, parasite or virus in culture; format: cell-based
MT-2 cells = test: Cytotoxicity in MT-2 cells; format: cell-based
[2] = tested on: fusion between MAGI-CCR5 and HL 2/3 cells; test: HIV-1 cell-cell fusion assay; format: cell-based; details: read-out: IC50, cell-cell fusion assay; MAGI-CCR5 and HL 2/3 cells
TZM-bl cells = test: Cytotoxicity in TZM-bl cells; format: cell-based
[3] = tested on: HIV-1ADA (CCR5-tropic) pseudovirus; test: Single-cycle infection assay in U87-CD4-CCR5 cells; details: U87-CD4-CCR5, HIV-1ADA
HIV-1 Env pseudoviruses [4] = format: cell-based
[5] = tested on: lab-adapted and primary HIV-1 isolates; test: microbe, parasite or virus in culture; format: cell-based; details: PBMC
U87-CD4-CCR5 cells = test: Cytotoxicity in U87-CD4-CCR5 cells; format: cell-based
PBMC = test: Cytotoxicity in PBMCs; format: cell-based, human
HIV-1 integrase = HIV-1 integrase (Human immunodeficiency virus type 1 group M subtype B, UniProt P04585); test: HIV-1 integrase assay; format: biochemical; details: read-out: IC50, HIV-1 integrase assay
[6] = tested on: HIV-1HXB2 (CXCR4-tropic) pseudovirus; test: Single-cycle infection assay in U87-CD4-CXCR4 cells; details: U87-CD4-CXCR4, HIV-1HXB2
HIV-1ADA = test: CD4-dependent CCR5-tropic HIV-1 cell-cell transmission assay; format: cell-based; details: read-out: IC50, CCR5-tropic HIV-1 cell-cell transmission; Ghost X4/R5 and MOLT-4/HIV-1ADA, p24
VSV-G = test: microbe, parasite or virus in culture; format: cell-based; details: control, VSV-G envelope pseudovirus
HIV-1 Env pseudoviruses [7] = details: data previously published ref 19, cited from earlier work
[8] = molecular target: HIV-1 reverse transcriptase (RT) (Human immunodeficiency virus type 1 group M subtype B, UniProt P12497); test: HIV-1 reverse transcriptase; details: read-out: IC50, HIV-1 reverse transcriptase (RT) assay
U87-CD4-CXCR4 cells = test: Cytotoxicity in U87-CD4-CXCR4 cells; format: cell-based

CC1(C)CC(NC(=O)C(=O)Nc2ccc(Cl)cc2)CC(C)(C)N1 [NBD-556]
enhancement of mAb 17b binding to YU2 core gp120 (in words) (YU2 core gp120): highest enhancement
IC50 (A-MLV): > 60 µM
IC50 (HIV-1IIIB): ~60 µM
IC50 ([1]; RT inhibitor-resistant isolate AZT-R, subtype B, MT-2, X4): 58 ± 14.3 µM
IC50 ([1]; fusion inhibitor-resistant isolate pNL4-3 gp41(36G)V38E,N42S, subtype B, MT-2, X4): 11 ± 0.9 µM
IC50 ([1]; laboratory strain MN, subtype B, MT-2, X4): 15.9 ± 1.6 µM
IC50 ([1]; laboratory strain RF, subtype B, MT-2, R5X4): 18.7 ± 1.3 µM
IC50 ([1]; laboratory strain SF2, subtype B, MT-2, R5X4): ≥ 118 µM
IC50 ([1]; protease inhibitor-resistant isolate HIV-1RF/L-323-12-3, subtype B, MT-2, X4): < 59 µM
CC50 (MT-2 cells): > 280 µM
IC50 [2]: 6.5 µM
CC50 (TZM-bl cells): ~60 µM
IC50 [3]: 7.4 ± 0.8 µM
IC50 (HIV-1 Env pseudoviruses [4]): 11.5 µM and 9.4 µM
IC50 (HIV-1 Env pseudoviruses [4]; TZM-bl, HIV-1HXB2): 6.9 ± 0.9 µM
share of viruses showing sensitivity at ≤3 μM (HIV-1 Env pseudoviruses [4]; panel of 56 HIV-1 Env pseudoviruses): 7%
IC50 (HIV-1 Env pseudoviruses [4]; subtype A2/D, NIH #11906, QG393.60M.ENV.B7): 3.5 ± 0.2 µM
IC50 (HIV-1 Env pseudoviruses [4]; subtype A2/D, NIH #11907, QG393.60M.ENV.B8): 3.6 ± 0.1 µM
IC50 (HIV-1 Env pseudoviruses [4]; subtype A, KNH1144): 20 ± 3.2 µM
IC50 (HIV-1 Env pseudoviruses [4]; subtype A, NIH #11888, QB726.70M.ENV.C4): 20.2 ± 6 µM
IC50 (HIV-1 Env pseudoviruses [4]; subtype A, NIH #11889, QB726.70M.ENV.B3): 11.3 ± 2.5 µM
IC50 (HIV-1 Env pseudoviruses [4]; subtype A, NIH #11890, QF495.23M.ENV.A1): 13.6 ± 2.3 µM
IC50 (HIV-1 Env pseudoviruses [4]; subtype A, NIH #11891, QF495.23M.ENV.A3): 27.8 ± 9.3 µM
IC50 (HIV-1 Env pseudoviruses [4]; subtype A, NIH #11892, QF495.23M.ENV.B2): 20.4 ± 7 µM
IC50 (HIV-1 Env pseudoviruses [4]; subtype A/E, AA058): 4.1 ± 0.8 µM
IC50 (HIV-1 Env pseudoviruses [4]; subtype A/E, CM244): 5.6 ± 0.8 µM
IC50 (HIV-1 Env pseudoviruses [4]; subtype A/E, NIH #11603 (potential), CRF01_AE clone 269): 10.7 ± 1.5 µM
IC50 (HIV-1 Env pseudoviruses [4]; subtype A/G, NIH #11601, CRF02_AG clone 263): 7 ± 2.2 µM
IC50 (HIV-1 Env pseudoviruses [4]; subtype A/G, NIH #11602, CRF02_AG clone 266): 4.6 ± 1.6 µM
IC50 (HIV-1 Env pseudoviruses [4]; subtype A/G, NIH #11605, CRF02_AG clone 278): 6.5 ± 1.1 µM
IC50 (HIV-1 Env pseudoviruses [4]; subtype B, B41): 4.5 ± 2 µM
IC50 (HIV-1 Env pseudoviruses [4]; subtype B, NIH #11018, QH0692, clone 42): 2 ± 0.6 µM
IC50 (HIV-1 Env pseudoviruses [4]; subtype B, NIH #11022, PVO, clone 4): 3.5 ± 0.7 µM
IC50 (HIV-1 Env pseudoviruses [4]; subtype B, NIH #11023, TRO, clone 11): 4.1 ± 0.6 µM
IC50 (HIV-1 Env pseudoviruses [4]; subtype B, NIH #11033, pWIT04160 clone 33): 4.8 ± 0.8 µM
IC50 (HIV-1 Env pseudoviruses [4]; subtype B, NIH #11035, PREJ04541 clone 67): 3.4 ± 0.2 µM
IC50 (HIV-1 Env pseudoviruses [4]; subtype B, NIH #11036, pRHPA4259 clone 7): 4.3 ± 0.5 µM
IC50 (HIV-1 Env pseudoviruses [4]; subtype B, NIH #11037, PTHR04156 clone 18): 8.4 ± 2.4 µM
IC50 (HIV-1 Env pseudoviruses [4]; subtype B, NIH #11563, p1058_11.B11.1550, R5X4-tropic): 1.9 ± 1 µM
IC50 (HIV-1 Env pseudoviruses [4]; subtype C, NIH #11306, Du156, clone 12): 5 ± 0.9 µM
IC50 (HIV-1 Env pseudoviruses [4]; subtype C, NIH #11307, Du172, clone 17): 4.8 ± 0.2 µM
IC50 (HIV-1 Env pseudoviruses [4]; subtype C, NIH #11308, Du422, clone 1): 6.1 ± 0.5 µM
IC50 (HIV-1 Env pseudoviruses [4]; subtype C, NIH #11309, ZM197M.PB7): 3.8 ± 0.3 µM
IC50 (HIV-1 Env pseudoviruses [4]; subtype C, NIH #11310, ZM214M.PL15): 4.1 ± 0.7 µM
IC50 (HIV-1 Env pseudoviruses [4]; subtype C, NIH #11311, ZM233M.PB6): 6.6 ± 0.8 µM
IC50 (HIV-1 Env pseudoviruses [4]; subtype C, NIH #11312, ZM249M.PL1): 6.1 ± 0.3 µM
IC50 (HIV-1 Env pseudoviruses [4]; subtype C, NIH #11313, ZM53M.PB12): 14.6 ± 1 µM
IC50 (HIV-1 Env pseudoviruses [4]; subtype C, NIH #11314, ZM109F.PB4): 6.2 ± 0.3 µM
IC50 (HIV-1 Env pseudoviruses [4]; subtype C, NIH #11315, ZM135M.PL10a): 2.2 ± 0.6 µM
IC50 (HIV-1 Env pseudoviruses [4]; subtype C, NIH #11316, CAP45.2.00.G3): 9.6 ± 0.3 µM
IC50 (HIV-1 Env pseudoviruses [4]; subtype C, NIH #11317, CAP210.2.00.E8): 5.3 ± 0.6 µM
IC50 (HIV-1 Env pseudoviruses [4]; subtype C, NIH #11908, QB099.391 M.ENV.B1): 5.7 ± 0.9 µM
IC50 (HIV-1 Env pseudoviruses [4]; subtype C, NIH #11909, QB099.391 M.ENV.C8): 3.6 ± 0.9 µM
IC50 (HIV-1 Env pseudoviruses [4]; subtype C, NIH #11910, QC406.70M.ENV.F3): 3.6 ± 0.9 µM
IC50 (HIV-1 Env pseudoviruses [4]; subtype D, NIH #11911, QA013.70I.ENV.H1): 9.4 ± 2.6 µM
IC50 (HIV-1 Env pseudoviruses [4]; subtype D, NIH #11912, QA013.70I.ENV.M12): 5.4 ± 0.3 µM
IC50 (HIV-1 Env pseudoviruses [4]; subtype D, NIH #11914, QA465.59M.ENV.D1): 6.1 ± 0.5 µM
IC50 (HIV-1 Env pseudoviruses [4]; subtype D, NIH #11916, QD435.100M.ENV.B5): 4.4 ± 1 µM
IC50 (HIV-1 Env pseudoviruses [4]; subtype D, NIH #11918, QD435.100M.ENV.E1): 6.2 ± 1.7 µM
IC50 ([5]; laboratory strain 89.6, subtype B, R5X4): 4.8 ± 1 µM
IC50 ([5]; laboratory strain BaL, subtype B, R5): ≥ 118 µM
IC50 ([5]; laboratory strain SF162, subtype B, R5): 48.9 ± 7.3 µM
IC50 ([5]; primary isolate 92US657, subtype B, R5): 48 ± 1.65 µM
IC50 ([5]; primary isolate 93MW959, subtype C, R5): 57.2 ± 8.7 µM
IC50 ([5]; primary isolate 93TH060, subtype E, R5): > 45 µM
IC50 ([5]; primary isolate RU570, subtype G, R5): 19.5 ± 2.3 µM
CC50 (U87-CD4-CCR5 cells): ~60 µM
CC50 (PBMC): > 280 µM
IC50 (HIV-1 integrase): > 200 µM
IC50 [6]: 9.5 ± 0.6 µM
IC50 (HIV-1ADA): ~60 µM
IC50 (VSV-G): > 60 µM
IC50 (HIV-1 Env pseudoviruses [7]; subtype A, NIH #11887, Q259env.w6): 6.9 ± 0.9 µM
IC50 (HIV-1 Env pseudoviruses [7]; subtype A/D, NIH #11901, QA790.204I.ENV.A4): 12.3 ± 1.8 µM
IC50 (HIV-1 Env pseudoviruses [7]; subtype A/D, NIH #11903, QA790.204I.ENV.C8): 5 ± 1 µM
IC50 (HIV-1 Env pseudoviruses [7]; subtype A/D, NIH #11904, QA790.204I.ENV.E2): 7.1 ± 0.5 µM
IC50 (HIV-1 Env pseudoviruses [7]; subtype B, NIH #11024, AC10.0, clone 29): 8.9 ± 3 µM
IC50 (HIV-1 Env pseudoviruses [7]; subtype B, NIH #11038, pCAAN5342 clone A2): 2.4 ± 0.3 µM
IC50 (HIV-1 Env pseudoviruses [7]; subtype B, NIH #11058, SC422661.8): 4.8 ± 0.4 µM
IC50 (HIV-1 Env pseudoviruses [7]; subtype B, NIH #11578, pWEAUd15.410.5017, R5X4-tropic): 4.9 ± 0.8 µM
IC50 (HIV-1 Env pseudoviruses [7]; subtype D, NIH #11913, QA465.59M.ENV.A1): 4.8 ± 0.2 µM
IC50 [8]: > 200 µM
CC50 (U87-CD4-CXCR4 cells): ~60 µM
